{
  "source": "patent US11718813B2",
  "about": "“2-in-1 sanitizing and rinse aid compositions employing amine based surfactants in machine warewashing” (ECOLAB USA INC., priority 2020, dated 2023)",
  "key": {"[1]": {"assay": "Surface tension / critical micelle concentration on a tensiometer", "format": "physicochemical", "conditions": "0.001 to 1 wt % in DI water, FIG. 1", "experimental": "All samples were run on a tensiometer with the concentration of the amine surfactants ranging from 0.001 to 1 wt % in up to 50 mL DI water."}, "E. coli": {"system": "E. coli", "assay": "AOAC Official Method 960.09 Germicidal and Detergent Sanitizing Action of Disinfectants", "format": "cell-based", "from_the_text": "(§1) As used herein, the term “sanitizer” refers to an agent that reduces the number of bacterial contaminants to safe levels as judged by public health requirements. […] These reductions can be evaluated using a procedure set out in Germicidal and Detergent Sanitizing Action of Disinfectants, Official Methods of Analysis of the Association of Official Analytical Chemists, paragraph 960.09 and applicable sections, 15th Edition, 1990 (EPA Guideline 91-2). According to this reference a sanitizer should provide a 99.999% reduction (5-log order reduction) within 30 seconds at room temperature, 25±2° C., against several test organisms. […] Differentiation of antimicrobial “-cidal” or “-static” activity, the definitions which describe the degree of efficacy, and the official laboratory protocols for measuring this efficacy are considerations for understanding the relevance of antimicrobial agents and compositions. Antimicrobial compositions can affect two kinds of microbial cell damage. The first is a lethal, irreversible action resulting in complete microbial cell destruction or incapacitation. The second type of cell damage is reversible, such that if the organism is rendered free of the agent, it can again multiply. The former is termed microbiocidal and the later, microbiostatic. A sanitizer and a disinfectant are, by definition, agents which provide antimicrobial or microbiocidal activity.\n(§2) In order to determine the efficacy of the amine-based surfactants in various environments as determined by different pH values, the surfactants were tested for antimicrobial efficacy on E. coli and Staphylococcus aureus."}, "Staphylococcus aureus": {"system": "Staphylococcus aureus", "assay": "AOAC Official Method 960.09 Germicidal and Detergent Sanitizing Action of Disinfectants", "format": "cell-based", "conditions": "pH 5, about 12.5 to about 400 ppm tested, 5-log reached only at the highest concentration tested", "from_the_text": "as §1, §2"}, "Glewwe foam test": {"assay": "Glewwe foam test", "format": "physicochemical", "conditions": "foam height; 120 F; pH 8.5", "experimental": "The ability of a defoaming agent to control the foaming profile of the surfactant was also tested.\nThe foam height never surpassed the maximum height of 3 inches allowed by the Glewwe test for a passing test and generally had no foam or a low froth present. Even at a 3:1 ratio of surfactant to defoamer, the fatty alcohol alkoxylate was sufficient to keep the foam low for machine ware washing. At lower ratios, such as 2:1 or 1:1 surfactant to defoamer, the level of foam was even better maintained at a low to nonexistent amount."}},
  "data": [
    {"smiles": "CCCCCCCCCCCCN(CCCN)CCCN", "note": "[bis(3-aminopropyl)dodecylamine]", "values": [
      {"measurement": "surface tension", "setting": "[1]; pH 5", "result": "about 35 mN/m"},
      {"measurement": "surface tension", "setting": "[1]; pH 7", "result": "about 35 mN/m"},
      {"measurement": "surface tension", "setting": "[1]; pH 9", "result": "about 32 mN/m"},
      {"measurement": "log reduction", "setting": "E. coli; pH 5, about 12.5 to about 400 ppm tested, 5-log reached only at the highest concentration tested", "result": "< 5", "unit": "log"},
      {"measurement": "concentration to achieve a 5-log reduction", "setting": "E. coli; pH 7", "result": 50, "unit": "ppm"},
      {"measurement": "log reduction", "setting": "Staphylococcus aureus", "result": "< 5", "unit": "log"},
      {"measurement": "Surfactant Foam Profile 0 min", "setting": "Glewwe foam test", "result": 9},
      {"measurement": "Surfactant Foam Profile 15 sec", "setting": "Glewwe foam test", "result": 9},
      {"measurement": "Surfactant Foam Profile 1 min", "setting": "Glewwe foam test", "result": 8}
    ]}
  ]
}
